Measurements published in PMC7614683, “A small molecule PI3Kα activator for cardioprotection and neuroregeneration” (Nature, 2023).

What was measured:
PI3Kα-WT MEFs = assay: pAKT S473 western blot, PI3Kα-WT MEFs; type: cell-based; details: Mus musculus, 0.25 h; 15 min; read-out: EC50 of pAKT^S473 induction
Description: Unless otherwise indicated, western blotting was performed with ECL detection. For time course studies, A549 cells were seeded at 250,000 cells per well in 6-well plates in RPMI (10% FBS + 1 mM Na-Pyruvate + 1% P/S) and allowed to adhere overnight. The next day they were serum-starved for 4 h prior to treatment with 100 nM insulin or 5 μM 1938, for the indicated time (5 min to 48 h) at 37°C, 5% CO2. For 1938 titration assays in MEFs, cells were seeded at 150,000 cells per well in 6-well plates and allowed to adhere overnight. The next day they were serum-starved for 4 h prior to treatment with insulin (1 μM), 1938 (0.2 to 30 μM, final DMSO concentration of 1.5%) or inhibitors (final DMSO concentration of ≤1.5%) for 15 min at 37°C, 5% CO2. Cells were washed twice with cold PBS and lysed using cold RIPA buffer (25 mM Tris.HCl pH 7.6, 150 mM NaCl, 1% NP-40, 1% sodium deoxycholate, 0.1% SDS supplemented with protease/phosphatase inhibitor cocktail from Merck). To remove cell debris, homogenates were spun at 13,000 rpm for 15 min at 4°C and the supernatant fraction recovered. Protein concentration was determined by colorimetric assay (BCA assay, Promega). […]

A549 cells = assay: pAKT S473 ELISA, A549; type: cell-based, human; details: 15 min; 5-10 μM 1938
Description: A549 cells were seeded at 50,000 cells per well in 96-well plates in DMEM (10% FBS + 1% P/S). The next day cells were washed once with PBS before addition of serum-free DMEM for 24 h. On the day of treatment, cells were incubated in fresh serum-free DMEM prior to treatment. Compounds solubilised to 10 mM in DMSO were diluted 1:3 in an 8-point concentration response curve in DMSO. Concentration response curves were diluted in serum-free DMEM by transfer into intermediate plates using a BRAVO liquid handler (Agilent). Intermediate plates were then used to treat cell plates using the BRAVO liquid handler. […] Cell plates were treated for 15 min at 37°C, 5% CO2 before being washed with ice-cold PBS and lysed in lysis buffer […] Systems #895561) and freezing at -80°C. Levels of pAKT^S473 were determined using the phospho-AKT (S473) pan-specific Duoset IC ELISA (R&D Systems #DY[…]) in 96-well white high-binding plates (Corning #3922) according to manufacturer's instructions. Endpoint luminescence was measured using a Sense (Hidex) platereader. […] Data were transformed and EC50 data were determined by variable slope (4 parameters) non-linear regression using Prism 7 (Graphpad).

MAP4K1 (HPK1) = MAP4K1 (HPK1) (Homo sapiens, UniProt Q92918); assay: SelectScreen LanthaScreen Binding; details: 1000 nM
Sequence of MAP4K1 (HPK1) (Q92918 whole entry): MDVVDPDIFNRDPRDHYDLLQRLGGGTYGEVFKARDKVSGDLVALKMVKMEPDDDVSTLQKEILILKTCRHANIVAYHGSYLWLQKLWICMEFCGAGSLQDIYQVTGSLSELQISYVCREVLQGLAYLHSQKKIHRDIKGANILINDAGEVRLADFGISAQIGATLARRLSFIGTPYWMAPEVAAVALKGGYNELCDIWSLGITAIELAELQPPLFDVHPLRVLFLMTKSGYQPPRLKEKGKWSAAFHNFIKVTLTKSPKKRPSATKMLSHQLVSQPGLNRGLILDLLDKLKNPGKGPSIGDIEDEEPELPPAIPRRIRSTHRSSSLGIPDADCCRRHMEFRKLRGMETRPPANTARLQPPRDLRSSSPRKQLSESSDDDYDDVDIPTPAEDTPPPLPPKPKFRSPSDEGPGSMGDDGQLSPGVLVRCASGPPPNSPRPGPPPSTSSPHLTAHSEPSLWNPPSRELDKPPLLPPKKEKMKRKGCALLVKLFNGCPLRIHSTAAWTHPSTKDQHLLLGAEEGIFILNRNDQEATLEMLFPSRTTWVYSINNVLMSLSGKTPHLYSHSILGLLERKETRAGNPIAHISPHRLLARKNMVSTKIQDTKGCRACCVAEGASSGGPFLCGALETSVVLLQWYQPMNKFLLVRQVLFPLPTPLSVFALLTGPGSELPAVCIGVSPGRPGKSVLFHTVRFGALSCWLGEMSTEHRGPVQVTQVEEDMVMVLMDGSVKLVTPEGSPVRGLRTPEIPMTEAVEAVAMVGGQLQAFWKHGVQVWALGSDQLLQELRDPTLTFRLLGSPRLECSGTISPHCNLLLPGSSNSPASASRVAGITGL
Description: 133 protein kinases and 7 lipid kinases were counterscreened, with 1938 used at 1 μM, using the Adapta, Lantha and Z-LYTE assays (SelectScreen Kinase Profiling Service; Thermofisher – experimental details of these assays can be found here: https://www.thermofisher.com/uk/en/home/industrial/pharma-biopharma/drug-discovery-development/target-and-lead-identification-and-validation/kinasebiology/kinase-activity-assays.html. The tree represention in KinMap[59] generated courtesy of Cell Signaling Technology, Inc. (www.cellsignal.com). mTORC1 (mTOR/RAPTOR/LST8) protein complex and ATM kinase and substrates were produced as previously described[57],[60]. Screening of 1938 was conducted using SuperSep Phos-Tag 50 μmol/l 100 x 100 x 6.6 mm 17-well (192-18001/199-18011) gels. For ATM assays, 100 nM ATM was incubated for 30 min at 30°C with 5 μM GST-p53 and 1 mM ATP, in the absence or presence of 200 μM 1938 in ATM Kinase Buffer (50 mM HEPES pH 7.5, 100 mM NaCl, 10% glycerol, 2 mM […], 5 mM MgCl2). As a positive control for ATM activation, the same reaction was carried out with 100 nM ATM/5 μM GST-p53/1 mM ATP in the presence of 100 nM Mre11-Rad50-Nbs1 (MRN) complex, a known activator of ATM[61]. For mTORC1 assays, 50 nM mTORC1 complex (mTOR/LST8/RAPTOR) was incubated for 3 h at 30°C with 15 μM 4E-BP1, 10 mM MgCl2 and 250 μM ATP, in the absence or presence of 200 μM 1938. As a ‘positive’ control, a higher concentration (150 nM) of mTORC1 complex (mTOR/LST8/RAPTOR) was incubated for 3 h at 30°C with 15 μM 4E-BP1, 10 mM MgCl2 and 250 μM ATP. Kinase reactions were quenched by addition of SDS-PAGE Loading Buffer (as per manufacturer’s instructions) and freezing at -20°C before being run on the Phos-tag gels at 150 V for 90 min. Gels were then stained using InstantBlue™ Coomassie, and quantified using BioRad Image Lab Software. Kinase assays were carried out in triplicate.

With `CCN1CCN(c2ccc(Nc3cc(Nc4cccc5c4N(C(C)=O)CC5)ccn3)cc2)CC1` [Compound 1938] the EC50 (PI3Kα-WT MEFs) was 2 to 4 µM, the “pAKT^S473 generation” value (A549 cells) was ~ 200 % of Emax of 1 μM insulin and the “% Displacement Point 1” value (MAP4K1 (HPK1)) was -3.25%. The “% Displacement Point 2” value (MAP4K1 (HPK1)) was 6.64% and the “% Displacement mean” value (MAP4K1 (HPK1)) was 1.7%.
